Experimental findings from patent US20250230193A1, “CYCLIC COMPOUND HAVING SELECTIVE KRAS INHIBITORY EFFECT ON HRAS AND NRAS” (CHUGAI SEIYAKU KABUSHIKI KAISHA, priority 2022, published 2025) are described below.

Where a SMILES comes first, the peptide text is derived from it. Bridges are numbered along the chain shown (N, C = ends). [ ]: non-standard residue; d: D form. The star is where a group is joined. hPhe(3-Cl-4-CF3) = N[C@@H](CCc1ccc(C(F)(F)F)c(Cl)c1)C(=O)O; NMePhe(4-F) = CN[C@@H](Cc1ccc(F)cc1)C(=O)O; NMeGly(cPent) = CN[C@H](C(=O)O)C1CCCC1; NMeD = CN[C@@H](CC(=O)O)C(=O)O; NMeL = CN[C@@H](CC(C)C)C(=O)O; Morpholide = C1CN(*)CCO1; NMeA = CN[C@@H](C)C(=O)O; Ac5c = NC1(C(=O)O)CCCC1; Aze = O=C(O)[C@@H]1CCN1; Sar = CNCC(=O)O

Test [1] addresses GDP-bound NRAS wild-type protein (Homo sapiens, UniProt P01111). Kind of test: Binding to NRAS by surface plasmon resonance (SPR), Single Cycle Kinetics.
Test [2] addresses GDP-bound HRAS wild-type protein (Homo sapiens, UniProt P01112). Kind of test: Binding to HRAS by surface plasmon resonance (SPR), Single Cycle Kinetics. In general terms: In SPR one partner is held on a chip, and binding of the other changes the refractive index at the surface.
Setting [3] is: KD ratio, GDP-bound NRAS wild-type vs GDP-bound KRAS wild-type, SPR.
Setting [4] is: KD ratio, GDP-bound HRAS wild-type vs GDP-bound KRAS wild-type, SPR.
The mark [5] stands for this setting: KD ratio NRAS/KRAS, class symbols.
Setting [6] is: KD ratio HRAS/KRAS, class symbols.

GDP-bound HRAS wild-type protein, sequence (P01112 whole entry): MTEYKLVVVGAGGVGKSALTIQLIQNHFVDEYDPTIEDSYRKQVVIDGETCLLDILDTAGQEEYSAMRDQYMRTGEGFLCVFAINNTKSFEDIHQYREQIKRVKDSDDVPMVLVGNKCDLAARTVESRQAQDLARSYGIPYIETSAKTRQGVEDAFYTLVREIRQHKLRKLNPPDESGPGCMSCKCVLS
GDP-bound NRAS wild-type protein, sequence (P01111 whole entry): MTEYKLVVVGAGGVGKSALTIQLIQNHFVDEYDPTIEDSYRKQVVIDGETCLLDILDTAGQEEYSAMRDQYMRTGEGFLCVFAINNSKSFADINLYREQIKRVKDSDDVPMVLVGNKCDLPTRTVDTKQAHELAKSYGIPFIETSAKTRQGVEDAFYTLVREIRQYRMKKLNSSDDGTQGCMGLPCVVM

Turning to `CCO[C@@H]1CCN2C(=O)[C@H](CCc3cc(F)c(C(F)(F)F)c(F)c3)NC(=O)CN(C)C(=O)[C@H](Cc3ccc(C(F)(F)F)cc3)N3CCCCC[C@@H](C3=O)N(C)C(=O)CN(C)C(=O)[C@H]([C@@H](C)CC)NC(=O)[C@H](CC(C)C)N(C)C(=O)C[C@@H](C(=O)N3CCOCC3)N(C)C(=O)[C@H](C3CCCC3)N(C)C(=O)C3(CCC3)NC(=O)[C@H]12` [PP1082], the “NRAS/KRAS (ratio of KD value with respect to NRAS to KD value with respect to KRAS)” value in test [1] (setting [3]) is “A (a compound having 10 or more and less than 20 is denoted as A)”. Further, the “HRAS/KRAS (ratio of KD value with respect to HRAS to KD value with respect to KRAS)” value in test [2] (setting [4]) is “B (a compound having 3 or more and less than 10 is denoted as B)”.

On to `CCC(CC)[C@H]1C(=O)N(C)[C@H](C(=O)N(C)C)CC(=O)N(C)[C@H]2CCC/C=C/c3ccc(cc3)C[C@@H](C(=O)N(C)CC(=O)N[C@@H](CCc3cc(F)c(C(F)(F)F)c(F)c3)C(=O)N3C[C@H](OC(C)C)C[C@H]3C(=O)NC3(CC(C)(C)C3)C(=O)N1C)N1CC/C=C\C[C@@H](C1=O)N(C)C(=O)CN(C)C(=O)[C@H]([C@@H](C)CC)NC2=O` [PP2594], for which the “NRAS/KRAS (ratio of KD value with respect to GDP-bound NRAS wild-type protein to KD value with respect to KRAS)” value in test [1] (setting [5]) was “A (a compound having 10 or more and less than 20 is denoted as A)”. The “HRAS/KRAS (ratio of KD value with respect to GDP-bound HRAS wild-type protein to KD value with respect to KRAS)” value in test [2] (setting [6]) was “A (a compound having 10 or more and less than 20 is denoted as A)”.

Consider `CC[C@H](C)[C@@H]1NC(=O)[C@H](CC(C)C)N(C)C(=O)C[C@@H](C(=O)N2CCOCC2)N(C)C(=O)[C@H](C2CCCC2)N(C)C(=O)C2(CCCC2)NC(=O)[C@@H]2CCCN2C(=O)[C@H](CCc2ccc(C(F)(F)F)c(Cl)c2)NC(=O)CN(C)C(=O)[C@H](Cc2ccc(F)cc2)N(C)C(=O)[C@@H]2CCN2C(=O)[C@H](C)N(C)C1=O` [PP0217] ([NMeL]I[NMeA][Aze][NMePhe(4-F)][Sar][hPhe(3-Cl-4-CF3)]P[Ac5c][NMeGly(cPent)][NMeD]-Morpholide; lactam N-11), for which, in test [1] (KD ratio NRAS/KRAS, SPR), the “NRAS/KRAS (ratio of KD for GDP-bound NRAS wild-type to KD for KRAS)” value is “C (A compound having a KD ratio of 0.1 or more and less than 3 is denoted as C)”. Moreover, in test [2] (KD ratio HRAS/KRAS, SPR), the “HRAS/KRAS (ratio of KD for GDP-bound HRAS wild-type to KD for KRAS)” value was “C (A compound having a KD ratio of 0.1 or more and less than 3 is denoted as C)”.

Take `CCO[C@@H]1C[C@H]2C(=O)NC3(CCC3)C(=O)N(C)[C@@H](C(CC)CC)C(=O)N(C)[C@H](C(=O)N3CCCC3)CC(=O)N(C)[C@H]3CCCCC/C=C/c4ccc(cc4)C[C@@H](C(=O)N(C)CC(=O)N[C@@H](CCc4ccc(Cl)c(Cl)c4)C(=O)N2C1)N1CC/C=C\C[C@@H](C1=O)N(C)C(=O)CN(C)C(=O)[C@H]([C@@H](C)CC)NC3=O` [PP3052]: the “NRAS/KRAS (ratio of KD value with respect to GDP-bound NRAS wild-type protein to KD value with respect to KRAS)” value in test [1] (KD ratio NRAS/KRAS, SPR, GDP-bound wild-type proteins) is “AA (a compound having 20 or more is denoted as AA)”. The “HRAS/KRAS (ratio of KD value with respect to GDP-bound HRAS wild-type protein to KD value with respect to KRAS)” value in test [2] (KD ratio HRAS/KRAS, SPR, GDP-bound wild-type proteins) was “A (a compound having 10 or more and less than 20 is denoted as A)”.

In the case of `CCO[C@@H]1C[C@H]2C(=O)NC3(CCC3)C(=O)N(C)[C@@H](C3CCCC3)C(=O)N(C)[C@H](C(=O)N(C)C)CC(=O)N(C)[C@@H](CCOC)C(=O)N[C@@H]([C@@H](C)CC)C(=O)N(C)CC(=O)N(C)[C@H]3CCCCCN(C3=O)[C@@H](Cc3ccc(F)cc3)C(=O)N(C)CC(=O)N[C@@H](CCc3cc(F)c(C(F)(F)F)c(F)c3)C(=O)N2C1` [PP1194], the “NRAS/KRAS (ratio of KD value with respect to NRAS to KD value with respect to KRAS)” value in test [1] (setting [3]) was “B (a compound having 3 or more and less than 10 is denoted as B)”. Moreover, the “HRAS/KRAS (ratio of KD value with respect to HRAS to KD value with respect to KRAS)” value in test [2] (setting [4]) was “B (a compound having 3 or more and less than 10 is denoted as B)”.

As for `CCC[C@H]1C(=O)N[C@@H]([C@@H](C)CC)C(=O)N(C)CC(=O)N(C)[C@H]2C/C=C\CCN(C2=O)[C@@H](Cc2ccc(C(F)(F)F)cc2)C(=O)N(C)CC(=O)N[C@@H](CCc2cc(F)c(C(F)(F)F)c(F)c2)C(=O)N2C[C@H](OCC)C[C@H]2C(=O)NC2(CCC2)C(=O)N(C)[C@@H](C2CCCC2)C(=O)N(CCC)[C@H](C(=O)N(C)C)CC(=O)N1C` [PP1769], in test [1] (setting [3]), the “NRAS/KRAS (ratio of KD value for NRAS to KD value for KRAS)” value was “A (a compound having 10 or more and less than 20 is denoted as A)”. In addition, in test [2] (setting [4]), the “HRAS/KRAS (ratio of KD value for HRAS to KD value for KRAS)” value was “A (a compound having 10 or more and less than 20 is denoted as A)”.

For the molecule `CC[C@H](C)[C@@H]1NC(=O)[C@H](COC)N(C)C(=O)C[C@@H](C(=O)N2CCCCC2)N(C)C(=O)[C@H](C2CCCC2)N(C)C(=O)C2(CC(C)(C)C2)NC(=O)[C@@H]2C[C@@H](OC(C)C)CN2C(=O)[C@H](CCc2ccc(Cl)c(Cl)c2)NC(=O)CN(C)C(=O)[C@H](Cc2ccc(C(F)(F)F)cc2)N2CC/C=C\C[C@@H](C2=O)N(C)C(=O)CN(C)C1=O` [PP2671], the “NRAS/KRAS (ratio of KD value with respect to GDP-bound NRAS wild-type protein to KD value with respect to KRAS)” value in test [1] (setting [5]) was “A (a compound having 10 or more and less than 20 is denoted as A)”. For the same molecule, the “HRAS/KRAS (ratio of KD value with respect to GDP-bound HRAS wild-type protein to KD value with respect to KRAS)” value in test [2] (setting [6]) is “A (a compound having 10 or more and less than 20 is denoted as A)”.
